Data: publication PMC6934184, “Selective DNA-PKcs inhibition extends the therapeutic index of localized radiotherapy and chemotherapy” (The Journal of Clinical Investigation, 2019)

Molecular target: T1, PKN2 (PRK2) (Homo sapiens, UniProt Q16513)
T1 construct: purchased Thermo Fisher Scientific (Life Technologies) SelectScreen
Experiment: SelectScreen LanthaScreen
Type: binding
Conditions: read-out: % displacement
Summary of the method: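 SelectScreen broad panel; activity (Z'LYTE, Adapta) plus binding formats. ATP: Km app for CSF1R Z'LYTE; 10 for CAMK1 Adapta. Readout = % per kinase.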

T1 sequence (Q16513 whole entry): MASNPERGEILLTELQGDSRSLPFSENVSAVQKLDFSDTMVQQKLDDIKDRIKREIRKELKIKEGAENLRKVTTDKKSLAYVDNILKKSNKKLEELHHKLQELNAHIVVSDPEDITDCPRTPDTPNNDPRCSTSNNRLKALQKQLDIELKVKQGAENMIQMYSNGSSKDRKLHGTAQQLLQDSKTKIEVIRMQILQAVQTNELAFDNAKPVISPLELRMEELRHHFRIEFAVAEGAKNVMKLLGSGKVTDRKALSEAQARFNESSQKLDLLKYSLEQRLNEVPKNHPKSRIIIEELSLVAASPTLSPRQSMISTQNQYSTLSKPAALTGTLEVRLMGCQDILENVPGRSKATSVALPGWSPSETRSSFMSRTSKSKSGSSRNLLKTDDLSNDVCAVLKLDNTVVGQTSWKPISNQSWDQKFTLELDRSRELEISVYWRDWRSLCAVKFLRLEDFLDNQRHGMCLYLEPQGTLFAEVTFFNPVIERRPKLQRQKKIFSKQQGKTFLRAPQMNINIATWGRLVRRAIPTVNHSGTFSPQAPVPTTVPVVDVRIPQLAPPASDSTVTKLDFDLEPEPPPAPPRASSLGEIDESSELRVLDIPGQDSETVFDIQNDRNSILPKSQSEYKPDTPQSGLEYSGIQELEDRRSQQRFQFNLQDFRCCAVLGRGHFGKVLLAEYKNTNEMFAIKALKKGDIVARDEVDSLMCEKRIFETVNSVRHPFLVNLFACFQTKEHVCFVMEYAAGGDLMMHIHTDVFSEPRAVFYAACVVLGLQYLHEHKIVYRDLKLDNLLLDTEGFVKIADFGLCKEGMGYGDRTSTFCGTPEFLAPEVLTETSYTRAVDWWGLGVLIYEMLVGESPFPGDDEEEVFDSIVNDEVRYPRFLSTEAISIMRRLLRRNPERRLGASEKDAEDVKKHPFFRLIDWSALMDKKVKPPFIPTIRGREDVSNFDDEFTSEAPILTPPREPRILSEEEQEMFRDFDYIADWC

CN(C(=O)CN1CCOCC1)c1ccc2sc3c(-c4cccc5c(=O)cc(N6CC7CCC(C6)O7)oc45)cccc3c2c1 [NU5455]
inhibition at 1 µM: -1%
